Test results from publication PMC7138307 (PLoS ONE, 2020).
“Also recorded” adds a separate entry of the source.

Tests used:
CaMK1a = molecular target: T1, CaMK1a (Mus musculus, UniProt Q91YS8); test: Ex vivo KiNativ ATP/ADP probe competition in mouse cortical brain lysates; type: binding
T1 construct: from tissue; host or cells: mouse cortical brain lysate

CK1d, CK1e = test: as above; type: binding; conditions: DVKPDNFLMGLGKK; Lys2; ATP probe
FES = molecular target: T2, FES (Mus musculus, UniProt P16879); test: as above; type: binding; conditions: LRADNTPVAVKSCR, Lys1
T2 construct: homogenized brain lysates were labeled with Desthiobiotin-ADP-acyl phosphate probe; from tissue; host or cells: mouse cortical brain lysate
T2 sequence (P16879 whole entry): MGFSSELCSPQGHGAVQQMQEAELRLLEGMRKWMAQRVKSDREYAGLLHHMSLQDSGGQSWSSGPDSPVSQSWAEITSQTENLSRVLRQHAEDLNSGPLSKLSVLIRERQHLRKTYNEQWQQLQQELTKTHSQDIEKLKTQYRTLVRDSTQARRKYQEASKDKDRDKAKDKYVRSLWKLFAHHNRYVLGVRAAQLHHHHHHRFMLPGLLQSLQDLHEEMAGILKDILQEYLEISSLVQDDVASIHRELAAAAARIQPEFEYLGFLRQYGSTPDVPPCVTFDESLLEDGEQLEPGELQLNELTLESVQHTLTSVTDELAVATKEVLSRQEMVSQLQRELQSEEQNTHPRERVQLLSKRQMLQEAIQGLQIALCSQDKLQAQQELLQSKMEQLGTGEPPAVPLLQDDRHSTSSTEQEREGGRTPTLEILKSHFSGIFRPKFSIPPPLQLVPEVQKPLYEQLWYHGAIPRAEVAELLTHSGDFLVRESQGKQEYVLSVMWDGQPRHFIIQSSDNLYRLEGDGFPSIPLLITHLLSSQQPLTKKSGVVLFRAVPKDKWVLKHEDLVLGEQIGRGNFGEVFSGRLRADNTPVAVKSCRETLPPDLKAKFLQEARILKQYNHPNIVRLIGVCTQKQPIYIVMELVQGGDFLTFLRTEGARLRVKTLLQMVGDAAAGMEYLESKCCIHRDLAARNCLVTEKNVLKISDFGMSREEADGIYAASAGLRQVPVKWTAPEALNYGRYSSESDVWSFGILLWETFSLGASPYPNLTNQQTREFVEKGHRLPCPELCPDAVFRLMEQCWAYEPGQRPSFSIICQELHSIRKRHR

MAP4K5 = molecular target: T3, MAP4K5 (Mus musculus, UniProt Q8BPM2); test: as above; type: binding; conditions: NVHTGELAAVKIIK, Lys1
T3 construct: from tissue; host or cells: mouse cortical brain lysate
T3 sequence (Q8BPM2 whole entry): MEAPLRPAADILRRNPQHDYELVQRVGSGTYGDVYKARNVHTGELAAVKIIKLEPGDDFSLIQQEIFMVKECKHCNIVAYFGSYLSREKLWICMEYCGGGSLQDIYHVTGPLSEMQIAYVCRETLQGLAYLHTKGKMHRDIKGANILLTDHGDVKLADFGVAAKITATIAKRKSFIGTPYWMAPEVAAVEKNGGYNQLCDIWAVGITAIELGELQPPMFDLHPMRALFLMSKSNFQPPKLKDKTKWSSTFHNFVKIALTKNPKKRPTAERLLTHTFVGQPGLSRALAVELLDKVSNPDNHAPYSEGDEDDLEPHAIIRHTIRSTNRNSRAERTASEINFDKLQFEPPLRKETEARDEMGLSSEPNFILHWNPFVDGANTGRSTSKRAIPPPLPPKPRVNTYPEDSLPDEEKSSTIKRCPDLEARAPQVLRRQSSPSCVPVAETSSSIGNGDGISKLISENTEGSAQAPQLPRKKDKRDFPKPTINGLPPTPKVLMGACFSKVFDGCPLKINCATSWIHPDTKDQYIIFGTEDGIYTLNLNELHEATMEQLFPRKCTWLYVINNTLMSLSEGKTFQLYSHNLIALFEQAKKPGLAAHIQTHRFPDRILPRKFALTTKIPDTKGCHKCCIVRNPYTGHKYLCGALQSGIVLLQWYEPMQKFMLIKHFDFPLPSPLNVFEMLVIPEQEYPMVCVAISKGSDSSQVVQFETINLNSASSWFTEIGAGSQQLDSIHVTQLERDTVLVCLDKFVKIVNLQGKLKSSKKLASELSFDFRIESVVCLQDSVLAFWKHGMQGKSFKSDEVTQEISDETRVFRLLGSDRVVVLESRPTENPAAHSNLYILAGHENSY

PIP4K2C = molecular target: T4, PIP4K2C (Mus musculus, UniProt Q91XU3); test: as above; type: binding; conditions: labeling site ATP
T4 construct: from tissue; host or cells: mouse cortical brain lysate
T4 sequence (Q91XU3 1-421): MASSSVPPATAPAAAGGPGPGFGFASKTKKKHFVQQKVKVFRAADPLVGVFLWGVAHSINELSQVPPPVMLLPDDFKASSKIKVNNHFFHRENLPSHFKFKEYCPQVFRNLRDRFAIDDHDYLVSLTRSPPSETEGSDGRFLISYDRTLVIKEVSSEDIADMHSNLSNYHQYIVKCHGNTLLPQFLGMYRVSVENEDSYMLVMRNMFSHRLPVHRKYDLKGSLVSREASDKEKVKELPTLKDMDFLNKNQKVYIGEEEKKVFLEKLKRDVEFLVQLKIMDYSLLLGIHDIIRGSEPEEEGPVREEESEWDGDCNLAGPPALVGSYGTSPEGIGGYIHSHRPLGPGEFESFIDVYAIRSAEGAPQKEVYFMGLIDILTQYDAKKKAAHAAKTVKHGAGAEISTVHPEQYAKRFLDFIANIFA

TAO1, TAO3 = test: as above; type: binding; conditions: DIKAGNILLTEPGQVK, Lys2
tau phosphorylation = test: Isoflurane induced hypothermia tau phosphorylation in C57Bl/6 mice (western blot of cortex); type: in vivo, mouse
Description: Under basal conditions, tau phosphorylation is tightly regulated by opposing kinase and phosphatase activities. In mice, isoflurane induced hypothermia causes a dramatic increase in tau phosphorylation through the temperature dependent inhibition of PP2A [40]. In the current experiment, we used isoflurane induced hypothermia in C57Bl/6 mice to increase tau phosphorylation in order to test the effects of TTBK1 inhibition. By using wild-type mice we ensured that both the levels of tau and tau kinases were at endogenous levels. […] Based on our in vitro potency assays and pharmacokinetic parameters, the highest dose used (75 mg/kg) was projected to achieve an IC80 of TTBK1 inhibition for the one hour of hypothermia treatment (S3 Fig). […] This further confirms that S422, a site implicated in the early stages of neurofibrillary tangle formation in disease, is likely solely phosphorylated by TTBK1 in the brain.
Fig 6 Acute TTBK1 inhibition reduces tau phosphorylation at disease relevant sites in vivo. […] Phosphorylation signal was normalized to the level of total tau in each sample. Data is represented as the mean +/- SEM. For each phospho-epitope, treatment significance was determined first by one-way ANOVA between all groups; For each dose group, Tukey’s comparison was used to determine significance versus the Vehicle treated control. (B) Correlation within each brain sample between the level of tau phosphorylation at S422 and the measured concentration of free drug (R^2 = 0.4254; p = 0.0569).
Samples were lysed in Pierce RIPA lysis and extraction buffer (Thermo Fisher Scientific, Waltham, MA) supplemented with 1% Halt protease and phosphatase inhibitor cocktail (Thermo Fisher Scientific, Waltham, MA) and centrifuged at 14000 x g for 20 min at 4°C to clear the lysate. Protein concentrations were determined using the Direct Detect Infrared Spectrometer (EMD Millipore Corp., Burlington, MA) and 10μg of each sample was denatured in 6X SDS sample buffer (Boston Bioproducts, Ashland, MA) for 7 minutes at 90°C. Proteins were loaded into a Criterion 7.5% tris-glycine gel (Bio-Rad, Hercules, CA) and separated by SDS-PAGE at 120V for 120 minutes. The gel was transferred to an IBlot2 nitrocellulose membrane (Invitrogen, Carlsbad, CA), blocked with TBST blocking buffer (Li-cor Biosciences, Lincoln, NE) for 1 hour, and washed three times with TBST. The membrane was probed with primary antibodies (1:1000 dilution) in antibody dilution buffer (1:1 TBST blocking buffer and 1X TBST) overnight at 4°C. The following antibodies were used for immunoblotting: TTBK1 (Cat# PA5-20686, Invitrogen, Carlsbad, CA), Tau-5 (Cat# ab80579, Abcam, Cambridge, UK), phospho-Tau S422 (Cat# ab79415, Abcam, Cambridge, UK), S198 (Cat# ab79540, Abcam, Cambridge, UK), AT8 S202/T205 (Cat# MN1020, Invitrogen, Carlsbad, CA), S214 (Cat# ab170892, Abcam, Cambridge, UK), AT180 T231 (Cat# MN1040, Invitrogen, Carlsbad, CA), S262 (Cat# ab131354, Abcam, Cambridge, UK), S356 (Cat# ab75603, Abcam, Cambridge, UK), S396 (Cat# ab109390, Abcam, Cambridge, UK), GAPDH (Cat# 5174S, Cell Signaling Technology, Danvers, MA), and β-actin (Cat# 926–42212, Li-cor Biosciences, Lincoln, NE). The blot was then washed in triplicate with TBST and incubated for 1 hour with secondary antibody (1:10,000 dilution of IRDye 800 anti-mouse IgG and IRDye 680 anti-rabbit IgG, Li-cor Biosciences, Lincoln, NE) in antibody dilution buffer. After a final triplicate wash with TBST, the blot was visualized using the Odyssey CLx imaging system (Li-cor Biosciences, Lincoln, NE).
Seven-week-old male C576Bl/6 mice were used for all hypothermia experiments (Charles River Laboratories, Wilmington, MA). Hypothermia was induced by exposure to vaporized isoflurane in an anesthetic induction chamber attached to a V-1 Tabletop Anesthesia System (VetEquip, Inc., Livermore, CA). The mice remained in the chamber for 60 minutes with a constant isoflurane concentration of 2%. […]

T1 sequence (Q91YS8 whole entry): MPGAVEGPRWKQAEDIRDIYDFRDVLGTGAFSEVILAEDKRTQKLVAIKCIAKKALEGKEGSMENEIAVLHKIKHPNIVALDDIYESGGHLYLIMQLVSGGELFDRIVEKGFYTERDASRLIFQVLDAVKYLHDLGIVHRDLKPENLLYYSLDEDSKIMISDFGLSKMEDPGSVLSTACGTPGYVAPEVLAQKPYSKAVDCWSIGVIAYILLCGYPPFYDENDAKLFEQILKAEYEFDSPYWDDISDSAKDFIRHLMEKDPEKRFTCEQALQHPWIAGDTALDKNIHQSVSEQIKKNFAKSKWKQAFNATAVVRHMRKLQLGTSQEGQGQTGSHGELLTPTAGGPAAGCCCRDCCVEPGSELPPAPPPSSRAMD

CCC(C)(O)C#Cc1cc2c(ccn2-c2ccnc(N)n2)cn1 (centres unmarked) [BIIB-TTBK1i]
Percent Inhibition at 1μM (CaMK1a; DLKPENLLYYSLDEDSK, Lys2, ADP probe): 64.7% | Percent Inhibition at 1μM (CaMK1a; DLKPENLLYYSLDEDSK, Lys2, ATP probe): 63.8% | Percent Inhibition at 1μM (CaMK1a; LVAIKCIAK, Lys1, ADP probe): 69.3% | Percent Inhibition at 1μM (CaMK1a; LVAIKCIAK, Lys1, ATP probe): 69.2% | Percent Inhibition at 1μM (CK1d, CK1e): 55.5% | Percent Inhibition at 1μM (FES; ADP probe): 79.8% | Percent Inhibition at 1μM (FES; ATP probe): 61.2% | Percent Inhibition at 1μM (MAP4K5; ADP probe): 69.7% | Percent Inhibition at 1μM (MAP4K5; ATP probe): 58.7% | Percent Inhibition at 1μM (PIP4K2C; TLVIKEVSSEDIADMHSNLSNYHQYIVK, ADP probe): 88.8% | Percent Inhibition at 1μM (PIP4K2C; TLVIKEVSSEDIADMHSNLSNYHQYIVK, ATP probe): 76.5% | Percent Inhibition at 1μM (PIP4K2C; VKELPTLKDMDFLNK, ATP probe): 67.9% | Percent Inhibition at 1μM (TAO1, TAO3; ADP probe): 66.8% | Percent Inhibition at 1μM (TAO1, TAO3; ATP probe): 69.5% | average reduction in tau phosphorylation at S422 (tau phosphorylation; 25mg/kg I.P., one hour, p = 0.0213 vs Vehicle): 60% | hypothermia induced tau phosphorylation at S422 (tau phosphorylation; 50mg/kg I.P., one hour, p = 0.0005 vs Vehicle): completely restored to basal levels; also recorded: complete reversal | tau phosphorylation at AT180 (Thr231) (tau phosphorylation; 75mg/kg I.P. p = 0.0002 vs Vehicle (50mg/kg p = 0.0005; 25mg/kg p = 0.0571)): significant decrease | tau phosphorylation at S396 (tau phosphorylation; 75mg/kg I.P. p = 0.0002 vs Vehicle (50mg/kg p = 0.011; 25mg/kg p = 0.8492)): significant decrease | tau phosphorylation at AT8 (S202/T205) (tau phosphorylation; 75mg/kg I.P. p = 0.0066 vs Vehicle (50mg/kg p = 0.5391; 25mg/kg p>0.999)): significant decrease | hypothermia induced tau phosphorylation at S422 (tau phosphorylation; 75mg/kg I.P., one hour, p = 0.0007 vs Vehicle): completely restored to basal levels; also recorded: significant decrease
